Results published in patent US20250295656A1, “COMBINATION OF LURBINECTEDIN AND IMMUNE CHECKPOINT INHIBITORS” (priority 2020, published 2025).

Tested on: MCA205 tumours
Experiment: Established MCA205 tumours in immunocompetent mice
Type: in vivo, immunocompetent C57BL/6 mice
Conditions: immunocompetent C57BL/6, 0.18 mg/kg i.v. day 1, 7 and 14
Procedure: Live MCA205 cells were injected subcutaneously (s.c.) into immunocompetent C57BL/6 mice or immunodeficient nu/nu mice as depicted in the scheme in (a) When tumours became palpable, mice were intravenously (i.v.) injected with […] lurbinectedin (on day 1, 7 and 14). Tumour growth was assessed regularly for the following 30 days. Data is depicted as tumour growth curves (b,d) and overall survival plots (c,e). Data were analyzed with TumGrowth.
In order to assess the capacity of lurbinectedin to stimulate anticancer immunity in a monotherapeutic approach and to convert tumour cells into a therapeutic vaccine we exposed murine fibrosarcoma cells to the drug in vitro (in conditions previously established to induce a sufficient amplitude of cell death) and then injected the dying cancer cells into syngeneic immunocompetent mice. […] Next we evaluated the effect of lurbinectedin on established cancers growing on immunocompetent or immunodeficient mice. […]
Six- to eight-week-old female wild-type C57BL/6 and nu/nu mice were obtained from Envigo France (Huntingdon, UK) and were kept in the animal facility at the Gustave Roussy Campus Cancer in a specific pathogen-free and temperature-controlled environment with 12 h day, 12 h night cycles and received food and water ad libitum. […] Animals were monitored and tumour growth documented regularly until end-points were reached. […]

In the case of `COc1ccc2[nH]c3c(c2c1)CCN[C@]31CS[C@@H]2c3c(OC(C)=O)c(C)c4c(c3[C@H](COC1=O)N1[C@@H]2[C@H]2c3c(cc(C)c(OC)c3O)C[C@@H]([C@@H]1O)N2C)OCO4` [lurbinectedin], the overall survival is reported as “increased” and the tumour growth (vs control animals, p<0.0001) is reported as “significantly reduced”.
